Laboratory results taken from patent US9510593B2, “S-benzylthiouracil compounds and methods of enhancing plant root growth” (Valent BioSciences Corporation, priority 2014, dated 2016).
Entries after “also recorded” stand apart in the source; their conditions may differ. Where two headings read alike, the source gives them in different places.

How the values were obtained:
Format in all cases: in vivo
rice = assay: Rice pouch assay: growth of primary root and shoot; settings: for Percent Change (rice primary root growth): compounds and water-soluble salts; for change in vivo at 10 ppm: Oryza sativa, 144 h, read-out: Percent Change in Primary Root Length in Rice; for Effect on rice root growth, in words: rice pouch assay, compared to control; for Percent Change in Primary Root Length of Rice: linkage changes
Procedure: Seeds were placed in germination pouches consisting of germination paper as an insert in a gas-permeable 16×14 cm plastic pouch (CYG Pouch; Mega International, St. Paul, Minn.). In pouch solution evaluation, S-Benzylthiouracil compounds or their salts were dissolved in a small volume of DMSO and added to sterile water with a maximum of 0.5% v/v DMSO at final dilution. The S-Benzylthiouracil solution was subsequently pipetted into the growth pouch, followed by the addition of seeds of the crop being tested. The pouches were arranged in a randomized complete block design in growth racks and placed in 19-liter polycarbonate food storage containers (Rubbermaid Commercial Products, Winchester, Va.). The sealed containers were held in an upright growth cabinet maintained at 25 C with a 12 hour light: 12 hour dark photoperiod. For rice, plants were harvested at 6 d, while in mungbean and corn, the plants were harvested at 4 d post sowing. Measurements were performed on the primary root and shoot of each seedling. The growth of the primary root of rice was examined in the pouch assay system. The results of the testing, presented as percent change in root length across all S-Benzylthiouracil compounds, are shown below.

tomato = assay: Tomato petri plate assay; settings: for Shoot Length / Root Length: 6 days after sowing; for Shoot Length: control 3.3; for Root Length: control 3.5; for change in vivo at 10 ppm: Solanum lycopersicum, 144 h, after 6 days of continuous exposure, read-out: Percent Increase (percent change in primary tomato root length); for Effect on tomato root growth, in words: continuous exposure
Procedure: For tomato, the plants were grown in disposable (150 mm) sterile plastic petri plates (Falcon, BD Biosciences, Franklin Lakes, N.J.). In the tomato assay, a single sheet of Whatman #1 filter paper was placed at the bottom of the plate, 15 tomato seeds were added, and 10 mL of treatment solution was added. At the end of 6 d, the 10 largest seedlings were selected for measurement from each plate. In each study, a minimum of 3 replicate plates were used. In tomato, several S-Benzylthiouracil compounds were tested to determine the effects on root growth.

mungbean = assay: Mungbean pouch assay: growth of primary root and shoot; settings: for change in vivo at 10 ppm: 96 h, read-out: Percent Change in Primary Root Length of Mungbean; for Effect on mungbean root (and shoot) growth, in words: mungbean pouch assay; for Shoot Length / Root Length: 4 days; for Shoot Length: control 4.9; for Root Length: control 6.1; for Percent Change in Primary Root Length: mungbean, linkage changes
Procedure: Seeds were placed in germination pouches consisting of germination paper as an insert in a gas-permeable 16×14 cm plastic pouch (CYG Pouch; Mega International, St. Paul, Minn.). In pouch solution evaluation, S-Benzylthiouracil compounds or their salts were dissolved in a small volume of DMSO and added to sterile water with a maximum of 0.5% v/v DMSO at final dilution. The S-Benzylthiouracil solution was subsequently pipetted into the growth pouch, followed by the addition of seeds of the crop being tested. The pouches were arranged in a randomized complete block design in growth racks and placed in 19-liter polycarbonate food storage containers (Rubbermaid Commercial Products, Winchester, Va.). The sealed containers were held in an upright growth cabinet maintained at 25 C with a 12 hour light: 12 hour dark photoperiod. For rice, plants were harvested at 6 d, while in mungbean and corn, the plants were harvested at 4 d post sowing. Measurements were performed on the primary root and shoot of each seedling. The growth of the primary root of mungbean was examined in the pouch assay system. The results of the testing, presented as percent change in root length across all the free S-Benzylthiouracil compounds is shown below. The following S-Benzylthiouracil compounds have benzyl substitutions as defined in Table 11 below.

[1] = 10 mg/liter, 6 days after sowing, untreated control 10.50
[2] = 30 mg/liter, 6 days after sowing, untreated control 10.50
[3] = 10 ppm (10 mg/L), benzyl ring substitutions, vs control
[4] = 10 ppm (10 mg/L), benzyl ring substitutions
[5] = 10 ppm equivalent, 6 days after sowing, control 2.96
[6] = 10 ppm equivalent, 6 days after sowing, control 8.61
[7] = 10 ppm (10 mg/L), uracil moiety substitutions, vs control
[8] = 10 ppm (10 mg/L), uracil moiety substitutions

## [K+].[O-]c1ccnc(SCc2cccc(F)c2)n1 [Compound 1 K+ salt, Potassium Salt of S-(3-Fluorobenzyl)-2-thiouracil]
rice; 10 mg/liter, 6 days after sowing, untreated control 9.67
  Root Length: 11.03 cm
rice; 30 mg/liter, 6 days after sowing, untreated control 9.67
  Root Length: 9.71 cm

## [Na+].[O-]c1ccnc(SCc2ccccc2)n1 [Compound 2 Na+ salt, Sodium Salt of S-Benzyl-2-thiouracil]
rice; [1]
  Root Length: 12.35 cm
rice; [2]
  Root Length: 13.03 cm

## Oc1ccnc(SCc2ccccc2)n1 [Compound 2, 2-[(phenylmethyl)thio]-4(3H)-pyrimidinone]
tomato; 1 ppm
  Shoot Length: 3.3 cm
  Root Length: 3.8 cm
tomato; 10 ppm
  Shoot Length: 3.0 cm
  Root Length: 3.8 cm
  change in vivo at 10 ppm: 23%
tomato
  Effect on tomato root growth, in words: one of the most active compounds in tomato; also recorded: root length was increased in a dose-dependent fashion
tomato; listed as S-Benzylthiouracil
  Effect on tomato root growth, in words: active at promoting root growth
rice; [1]
  Root Length: 12.44 cm
rice; [2]
  Root Length: 12.21 cm
rice; 1 ppm, 6 days after treatment, control 5.7
  Root Length: 6.7 cm
rice; 10 ppm, 6 days after treatment, control 5.7
  Root Length: 7.8 cm
rice; 10 ppm, 6 days after sowing
  Percent Change (rice primary root growth): 15.6%
rice; [3]
  change in vivo at 10 ppm: 15.6%
rice
  Effect on rice root growth, in words: increased the root length compared to the control treatment
mungbean; [4]
  Percent Change in Primary Root Length of Mungbean: 18.9%
  change in vivo at 10 ppm: 18.9%

## Oc1ccnc(SCc2ccc(F)cc2)n1 [Compound 3]
tomato; 10 ppm
  change in vivo at 10 ppm: 2.8%
rice; [5]
  Shoot Length: 2.59 cm
rice; [6]
  Root Length: 9.38 cm
rice; [3]
  change in vivo at 10 ppm: 13.9%
mungbean; [4]
  change in vivo at 10 ppm: 10.4%

## Oc1ccnc(SCc2ccccc2F)n1 [Compound 4]
rice; [3]
  change in vivo at 10 ppm: 13.5%
mungbean; [4]
  change in vivo at 10 ppm: 17.7%

## Oc1ccnc(SCc2ccc(F)c(F)c2)n1 [Compound 5, S-(3,4-Difluorobenzyl)-2-thiouracil]
tomato; 10 ppm
  change in vivo at 10 ppm: 23.4%
rice; [3]
  change in vivo at 10 ppm: 13.4%
mungbean; [4]
  change in vivo at 10 ppm: 17.6%

## Oc1ccnc(SCc2cc(F)cc(F)c2)n1 [Compound 6, S-(3,5-Difluorobenzyl)-2-thiouracil]
rice; [3]
  change in vivo at 10 ppm: 8.8%
mungbean; [4]
  change in vivo at 10 ppm: 3%

## COc1cccc(CSc2nccc(O)n2)c1 [Compound 7]
rice; [3]
  change in vivo at 10 ppm: 2.5%
mungbean; [4]
  change in vivo at 10 ppm: 17.5%

## COc1ccc(CSc2nccc(O)n2)cc1 [Compound 8]
rice; [3]
  change in vivo at 10 ppm: 0.4%

## Cc1cccc(CSc2nccc(O)n2)c1 [Compound 9]
rice; [3]
  change in vivo at 10 ppm: -2.3%
mungbean; [4]
  change in vivo at 10 ppm: 5.9%

## Oc1cc(O)nc(SCc2ccccc2)n1 [Compound 10]
tomato; 10 ppm
  change in vivo at 10 ppm: 8.4%
rice; [7]
  change in vivo at 10 ppm: 11.5%
mungbean; [8]
  change in vivo at 10 ppm: 5.9%

## Oc1nccc(SCc2cccc(F)c2)n1 [Compound 11]
tomato; 10 ppm
  change in vivo at 10 ppm: -34.8%
tomato
  Effect on tomato root growth, in words: root growth inhibition
rice; [7]
  change in vivo at 10 ppm: 10.6%
mungbean; [8]
  change in vivo at 10 ppm: 8.9%

## CCOC(=O)c1cnc(SCc2cccc(F)c2)nc1O [Compound 12, S-(3-Fluorobenzyl)-5-carboxyethyl-2-thiouracil]
rice; [7]
  change in vivo at 10 ppm: 9.5%
mungbean; [8]
  change in vivo at 10 ppm: -20.1%
mungbean
  Effect on mungbean root (and shoot) growth, in words: significant negative effect on root growth

## Oc1nc(SCc2cccc(F)c2)nc2[nH]cnc12 [Compound 13]
tomato; 10 ppm
  change in vivo at 10 ppm: 0.8%
tomato
  Effect on tomato root growth, in words: root growth inhibition
rice; [7]
  change in vivo at 10 ppm: 8.7%
mungbean; [8]
  change in vivo at 10 ppm: 4.5%

## Cc1cc(O)nc(SCc2ccccc2C)n1 [Compound 14]
rice; [7]
  change in vivo at 10 ppm: 8.6%
mungbean; [8]
  change in vivo at 10 ppm: 15.4%

## Cc1cc(O)nc(SCc2ccccc2)n1 [Compound 15]
tomato
  Effect on tomato root growth, in words: root growth inhibition
rice; [7]
  Percent Change in Primary Root Length in Rice: 7.6%
  change in vivo at 10 ppm: 7.6%
mungbean; 1 ppm
  Shoot Length: 5.6 cm
  Root Length: 6.9 cm
mungbean; 10 ppm
  Shoot Length: 5.0 cm
  Root Length: 8.5 cm
mungbean; [8]
  change in vivo at 10 ppm: 36.2%
mungbean
  Effect on mungbean root (and shoot) growth, in words: greatest increases in mungbean root growth; also recorded: both root and shoot showed significant increases in growth

## Cc1cc(O)nc(SCc2c(Cl)cccc2Cl)n1 [Compound 16, S-(2,6-Dichlorobenzyl)-6-methyl-2-thiouracil]
tomato; 10 ppm
  change in vivo at 10 ppm: -7.2%
rice; [5]
  Shoot Length: 2.71 cm
rice; [6]
  Root Length: 9.31 cm
rice; [7]
  change in vivo at 10 ppm: 5.5%
mungbean; [8]
  change in vivo at 10 ppm: 6.6%

## Fc1cccc(CSc2ncccn2)c1 [Compound 17]
rice; [7]
  change in vivo at 10 ppm: 5.1%
mungbean; [8]
  change in vivo at 10 ppm: 11.1%

## Oc1cc(O)nc(SCc2cccc(F)c2)n1 [Compound 18]
tomato; 10 ppm
  change in vivo at 10 ppm: 15.4%
rice; 10 ppm, 6 days after sowing
  Percent Change (rice primary root growth): 4.0%
rice; [7]
  change in vivo at 10 ppm: 4%
mungbean; [8]
  change in vivo at 10 ppm: 11.3%

## Nc1ccnc(SCc2cccc(F)c2)n1 [Compound 19]
rice; [7]
  change in vivo at 10 ppm: 2.9%

## Cc1cc(O)nc(SCc2ccccc2Cl)n1 [Compound 20]
rice; 1 ppm, 6 days after planting, control 1.7
  Shoot Length: 1.4 cm
rice; 1 ppm, 6 days after planting, control 5.4
  Root Length: 5.3 cm
rice; 2 ppm, 6 days after planting, control 1.7
  Shoot Length: 1.3 cm
rice; 2 ppm, 6 days after planting, control 5.4
  Root Length: 4.7 cm
rice; 5 ppm, 6 days after planting, control 1.7
  Shoot Length: 1.2 cm
rice; 5 ppm, 6 days after planting, control 5.4
  Root Length: 4.6 cm
rice; 10 ppm, 6 days after planting, control 1.7
  Shoot Length: 0.9 cm
rice; 10 ppm, 6 days after planting, control 5.4
  Root Length: 3.8 cm
rice; [7]
  change in vivo at 10 ppm: -6.9%
rice
  Effect on rice root growth, in words: significantly negative effect; also recorded: dose-dependent reductions in root and shoot growth
mungbean; [8]
  change in vivo at 10 ppm: 8.2%

## Oc1ccnc(OCc2cccc(F)c2)n1 [Compound 21, 2-O-(3-fluorobenzyl)uracil]
rice; 10 ppm (10 mg/L), vs control
  Percent Change in Primary Root Length of Rice: 6.0%
mungbean; 10 ppm (10 mg/L)
  Percent Change in Primary Root Length: 9.1%

## Oc1ccnc(SCCc2ccccc2)n1 [Compound 22]
rice; 10 ppm (10 mg/L), vs control
  Percent Change in Primary Root Length of Rice: 5.3%
rice
  Effect on rice root growth, in words: modest enhancements in root growth
mungbean; 10 ppm (10 mg/L)
  Percent Change in Primary Root Length: 29.0%

## Oc1ccnc(SC/C=C/c2ccccc2)n1 [Compound 23]
tomato; 10 ppm
  change in vivo at 10 ppm: -15.7%
rice; 10 ppm (10 mg/L), vs control
  Percent Change in Primary Root Length of Rice: 2.3%
rice
  Effect on rice root growth, in words: modest enhancements in root growth

## Oc1ccnc(OCc2ccccc2)n1 [Compound 24, 2-O-Benzyluracil]
rice; 10 ppm (10 mg/L), vs control
  Percent Change in Primary Root Length of Rice: 2.2%
mungbean; 10 ppm (10 mg/L)
  Percent Change in Primary Root Length: −1.3%

## O=c1cc[nH]c(=O)[nH]1 [Uracil]
tomato; 10 ppm
  change in vivo at 10 ppm: -21%
